Legend:
[1] = Solubility of anion free macrocycle in studied solvent systems; type: physicochemical; details: anion free form; chloroform, methanol, DMSO, acetonitrile, water or the mixtures of these solvents
Method: Dodecamethylbambus[6]uril-HI complex (0.5 g) was dissolved in the mixture of chloroform (50 ml) and methanol (50 ml). 30% H2O2 (0.25 ml) was added and the solution was stirred at room temperature for 24 h. The resulting white precipitate was collected by filtration and washed with equimolar mixture of chloroform and methanol. […] When tetrabutylammonium bearing bromide, iodide, and tetrafluoroborate anions is added to the suspension of obtained white powder in equimolar mixture of chloroform and methanol the immediate formation of transparent solution was observed. ^1H NMR spectra of the solutions correspond to the spectra of the complex between dodecamethylbambus[6]uril and corresponding anion.
Titanium dioxide powder (Aeroxide P25, typically 0.1 mg) was suspended in a solution of dodecamethylbambus[6]uril-HI complex (5.0 mM) in acetonitrile/water (1:1, 0.5 mL) in a standard quartz UV cuvette. The mixture was purged with oxygen for 5 min and irradiated at either wave lengths 254 or 366 nm. After 4 h white precipitated of anion free dodecamethylbambus[6]uril was obtained in 87% yield. […]

[2] = 1H NMR competition of dodecamethylbambus[6]uril-HCl complex with tetrabutylammonium iodide, association constant; type: binding; details: CD3OD:CDCl3=2:1, equimolar mixture, overall concentration 5 mM
Method: (§1) Equimolar mixture of dodecamethylbambus[6]uril-HCl complex and tetrabutylammonium bearing bromide, iodide, and tetrafluoroborate anions was dissolved in the mixture of CD3OD:CDCl3=2:1 to obtain solution in which overall concentration of dissolved solids was 5 mM. In all cases obtained ^1H NMR spectrum was identical with the spectrum of corresponding complex (see Example 20-22). As signals corresponding to dodecamethylbambus[6]uril-HCl complex were not observed the value of association constants for all complexes was calculated to be higher than 5×10^4 M^−1.

[3] = 1H NMR competition of dodecamethylbambus[6]uril-HCl complex with tetrabutylammonium tetrafluoroborate, association constant; type: binding; details: CD3OD:CDCl3=2:1, equimolar mixture, overall concentration 5 mM
Method: as §1

[4] = 1H NMR competition of dodecamethylbambus[6]uril-HCl complex with tetrabutylammonium bromide, association constant; type: binding; details: CD3OD:CDCl3=2:1, equimolar mixture, overall concentration 5 mM
Method: as §1

solubility of the anion free powder [1]: does not dissolve
SMILES: CN1C(=O)N(C)[C@@H]2[C@H]1N1CN3C(=O)N(CN4C(=O)N(CN5C(=O)N(CN6C(=O)N(CN7C(=O)N(CN2C1=O)[C@@H]1[C@H]7N(C)C(=O)N1C)[C@@H]1[C@H]6N(C)C(=O)N1C)[C@@H]1[C@H]5N(C)C(=O)N1C)[C@@H]1[C@H]4N(C)C(=O)N1C)[C@@H]1[C@H]3N(C)C(=O)N1C [dodecamethylbambus[6]uril, Dodecamethylbambus[6]uril]
association constant of complex with iodide anion [2]: higher than 5×10^4 M^−1 | association constant of complex with tetrafluoroborate anion [3]: higher than 5×10^4 M^−1 | association constant of complex with bromide anion [4]: higher than 5×10^4 M^−1
